Laboratory results as given in ChEMBL document CHEMBL5726408, “Compounds for treatment of complement mediated disorders” (2017).

Molecular target: Complement factor D (Homo sapiens, UniProt P00746)
Assay: Inhibition Assay: Human factor D (purified from human serum, Complement Technology, Inc.) at 80 nM final concentration is incubated with test compound at various concentrations for 5 minutes at room temperature in 50 mM Tris, 1M NaCl, pH 7.5. A synthetic substrate Z-L-Lys-SBzl and DTNB (Ellman's reagent) are added to final concentrations of 10 μM each. The increase in color is recorded at OD405 nm in a microplate in kinetic mode over 30 minutes with 30 second time points in a […]. IC50 values are calculated by non-linear regression from the percentage of inhibition of complement factor D activity as a function of test compound concentration.

Sequence of Complement factor D (P00746 whole entry): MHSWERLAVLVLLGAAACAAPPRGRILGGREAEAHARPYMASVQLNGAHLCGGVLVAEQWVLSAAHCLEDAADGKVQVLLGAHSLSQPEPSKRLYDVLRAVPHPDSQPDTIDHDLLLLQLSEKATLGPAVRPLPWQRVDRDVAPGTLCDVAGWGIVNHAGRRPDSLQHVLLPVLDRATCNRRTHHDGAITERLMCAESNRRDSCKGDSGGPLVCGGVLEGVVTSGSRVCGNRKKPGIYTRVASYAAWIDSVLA

| IC50 [nM] | Compound |
| --- | --- |
| < 1000 | NC(=O)c1cn(CC(=O)N2C[C@H](F)C[C@H]2C(=O)Nc2cccc(-c3ccccc3Cl)c2F)c2ccsc12 |
| < 1000 | NC(=O)c1nn(CC(=O)N2C[C@H](F)C[C@H]2C(=O)Nc2cccc(Br)n2)c2c1C=CC1N=C(c3cccc(Cl)c3)N=C21 (some centres not stated) |
